One series has as its system SD rats. The experiment in a line: Anticonvulsant effect, pentylenetetrazol (PTZ)-induced epileptic convulsion SD rat model. Format: in vivo. As to the method: To establish an epileptic convulsion SD rat animal model by intraperitoneally injecting 50 mg/kg of pentylenetetrazol (PTZ) into SD rats, and evaluate the anticonvulsant effect of compound 41.
Male SD rats weighing 300±10 g, as test animals, were acclimatized for 7 days after arriving at the animal facility and were randomly divided into groups based on weight one day before administration. The rats were fasted for half a day before testing but had access to water. During the test, compound 41 was orally administered to the animals at 3.5 mg/kg in advance. Two hours after the oral administration, a PTZ solution was intraperitoneally injected at 50 mg/kg. Observations were made on the rats' epileptic convulsion behavior within 1 h of performing PTZ induction. The latency period of clonic convulsion and the latency period of tonic-clonic behavior were measured.
Behavioral raw data are finally expressed as mean±standard error (Mean S.E.M.) and statistically analyzed using One-way ANOVA Dunnett post hoc. P<0.05 indicates the presence of a significant difference, P<0.01 indicates the presence of a very significant difference, and P<0.001 indicates the presence of an extremely significant difference.

Series [1] can be described thus: In vitro liver microsomal stability assay, rat. Format: in vitro ADME. The essentials:
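Test compound at […] was incubated at 37° C with 0.5 mg/mL rat or human liver microsomes, 1 mM NADPH and 3 mM MgCl2, in triplicate, sampled 0–60 min. Remaining parent was quantified by LC-MS/MS, giving half-life and microsomal and hepatic intrinsic clearance.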
(In general: Liver microsomes are vesicles of endoplasmic reticulum, rich in cytochrome P450 enzymes.)

Series [2] concerns the target T1, α4β3δ GABA receptors (α4β3δ-HEK-FlpIn-TRex stable cell strain) (Homo sapiens, UniProt P28472+P48169).
T1 construct: expressed in transfected cells
The experiment in a line: Whole-cell patch clamp, extrasynaptic functional activity (positive allosteric regulation of GABA-induced current). The conditions noted are these: patch clamp -60 mV, GABA at EC10-20, α4β3δ-HEK-FlpIn-TRex cells. In kind it is cell-based. Summed up:
(§1)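 Tetracycline-induced stable lines were used: α4β3δ in HEK-FlpIn-TRex and α1β2γ2 in CHO-TRex. Whole-cell patch clamp was run at −60 mV with GABA at EC10-20 ([…]) and compound perfused for 30 s before GABA, with extracellular pH 7.4. Fold increase in GABA current over ≥5 concentrations on ≥3 cells gave EC50 and Emax by Hill fit.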

Series [3] deals with T2, α1β2γ2 GABA receptors (α1β2γ2-CHO-TRex stable cell strain) (Homo sapiens, UniProt P14867+P47870).
T2 construct: expressed in transfected cells
The series can be described thus: Whole-cell patch clamp, intrasynaptic functional activity (positive allosteric regulation of GABA-induced current). Format: cell-based. The conditions noted are these: patch clamp -60 mV, GABA at EC10-20, α1β2γ2-CHO-TRex cells. Summed up:
as §1
A general note: In patch-clamp work, channel activity is measured electrically.

Where [4] appears, read: 3.5 mg/kg oral 2 h before PTZ 50 mg/kg i.p., observed 1 h, P<0.001 vs solvent control.

T2 sequence (P14867 28-456): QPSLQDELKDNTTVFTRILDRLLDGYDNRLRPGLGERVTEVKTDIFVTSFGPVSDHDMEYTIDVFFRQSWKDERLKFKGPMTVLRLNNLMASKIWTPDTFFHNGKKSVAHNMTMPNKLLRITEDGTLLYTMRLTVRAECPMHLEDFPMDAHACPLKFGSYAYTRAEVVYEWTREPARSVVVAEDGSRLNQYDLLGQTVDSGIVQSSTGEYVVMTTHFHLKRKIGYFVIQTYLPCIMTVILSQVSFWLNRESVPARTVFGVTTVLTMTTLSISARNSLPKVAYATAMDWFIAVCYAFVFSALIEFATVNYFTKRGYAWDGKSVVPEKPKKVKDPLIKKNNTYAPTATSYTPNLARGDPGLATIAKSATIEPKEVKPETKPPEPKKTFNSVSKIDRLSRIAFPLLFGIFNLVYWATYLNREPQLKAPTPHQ
T2 sequence (P47870 25-512 limits assumed): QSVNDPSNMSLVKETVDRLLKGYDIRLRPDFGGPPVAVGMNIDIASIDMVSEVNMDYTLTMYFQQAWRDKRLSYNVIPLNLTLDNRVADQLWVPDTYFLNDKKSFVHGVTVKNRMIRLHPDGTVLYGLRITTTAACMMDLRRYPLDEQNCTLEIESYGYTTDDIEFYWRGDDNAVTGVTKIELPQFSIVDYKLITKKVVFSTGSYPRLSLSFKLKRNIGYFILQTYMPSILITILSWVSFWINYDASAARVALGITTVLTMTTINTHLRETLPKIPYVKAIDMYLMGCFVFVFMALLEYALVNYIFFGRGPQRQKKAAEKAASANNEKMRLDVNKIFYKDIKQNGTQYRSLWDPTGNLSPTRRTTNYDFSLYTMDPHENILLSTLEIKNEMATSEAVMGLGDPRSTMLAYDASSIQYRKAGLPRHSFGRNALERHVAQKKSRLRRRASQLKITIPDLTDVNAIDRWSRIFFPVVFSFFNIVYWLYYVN
T2 sequence (P18507 40-475 partner): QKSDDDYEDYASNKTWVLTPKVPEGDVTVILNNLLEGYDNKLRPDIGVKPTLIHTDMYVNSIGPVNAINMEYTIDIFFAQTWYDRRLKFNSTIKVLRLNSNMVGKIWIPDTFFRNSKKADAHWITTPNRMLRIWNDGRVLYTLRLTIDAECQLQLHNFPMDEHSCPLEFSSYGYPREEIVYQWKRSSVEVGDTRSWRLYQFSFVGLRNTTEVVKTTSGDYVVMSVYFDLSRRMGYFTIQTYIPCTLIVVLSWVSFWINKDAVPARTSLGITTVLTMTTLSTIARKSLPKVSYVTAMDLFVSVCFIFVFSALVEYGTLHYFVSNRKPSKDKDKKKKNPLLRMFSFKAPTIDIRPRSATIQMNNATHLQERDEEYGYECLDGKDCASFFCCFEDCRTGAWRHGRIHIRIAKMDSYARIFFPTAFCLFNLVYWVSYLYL
T1 sequence (P48169 36-554): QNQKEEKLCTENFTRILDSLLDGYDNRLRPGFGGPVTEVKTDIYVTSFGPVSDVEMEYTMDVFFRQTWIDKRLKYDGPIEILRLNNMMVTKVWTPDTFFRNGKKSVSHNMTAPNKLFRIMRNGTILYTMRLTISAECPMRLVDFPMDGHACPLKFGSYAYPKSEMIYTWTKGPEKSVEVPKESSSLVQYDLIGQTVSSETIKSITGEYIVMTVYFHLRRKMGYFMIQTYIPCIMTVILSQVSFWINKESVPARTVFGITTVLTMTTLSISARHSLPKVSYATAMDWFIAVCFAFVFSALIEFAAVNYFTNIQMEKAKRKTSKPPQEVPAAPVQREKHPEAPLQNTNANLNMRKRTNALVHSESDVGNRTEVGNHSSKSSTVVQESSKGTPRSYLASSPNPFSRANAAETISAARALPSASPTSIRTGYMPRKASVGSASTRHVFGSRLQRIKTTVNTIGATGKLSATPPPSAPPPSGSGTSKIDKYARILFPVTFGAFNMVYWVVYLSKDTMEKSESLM
T1 sequence (P28472 26-473): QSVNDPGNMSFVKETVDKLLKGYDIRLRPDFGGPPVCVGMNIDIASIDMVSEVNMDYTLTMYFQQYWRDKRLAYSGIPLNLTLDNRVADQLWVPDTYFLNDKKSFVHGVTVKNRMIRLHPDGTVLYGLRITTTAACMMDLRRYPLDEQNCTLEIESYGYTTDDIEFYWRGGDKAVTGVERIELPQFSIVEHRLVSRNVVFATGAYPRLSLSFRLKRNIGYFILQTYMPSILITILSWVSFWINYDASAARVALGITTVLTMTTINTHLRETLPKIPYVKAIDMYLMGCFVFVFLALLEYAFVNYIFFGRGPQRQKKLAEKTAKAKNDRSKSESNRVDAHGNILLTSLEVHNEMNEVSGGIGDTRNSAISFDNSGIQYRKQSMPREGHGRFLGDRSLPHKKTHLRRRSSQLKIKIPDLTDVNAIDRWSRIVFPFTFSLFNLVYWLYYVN
T1 sequence (O14764 25-452 partner): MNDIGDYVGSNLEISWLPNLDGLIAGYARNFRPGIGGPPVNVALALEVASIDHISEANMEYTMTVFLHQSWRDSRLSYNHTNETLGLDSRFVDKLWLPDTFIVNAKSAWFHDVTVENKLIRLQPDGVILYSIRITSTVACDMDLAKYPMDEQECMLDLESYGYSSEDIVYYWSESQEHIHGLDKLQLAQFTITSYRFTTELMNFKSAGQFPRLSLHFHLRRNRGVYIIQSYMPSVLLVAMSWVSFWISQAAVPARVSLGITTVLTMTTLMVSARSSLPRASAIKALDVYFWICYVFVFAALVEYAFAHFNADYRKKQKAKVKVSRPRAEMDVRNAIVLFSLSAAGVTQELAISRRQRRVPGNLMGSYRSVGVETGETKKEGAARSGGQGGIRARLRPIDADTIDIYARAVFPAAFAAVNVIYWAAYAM

For orientation: CLint scaled means the capacity of the preparation to metabolise the compound, expressed as a volume cleared per time. Read a high CLint scaled as faster metabolism. Usually half-life stands for how long it takes for the measured level to halve. A low value points to rapid decline. As usually defined, the EC50 is the concentration needed to bring the measured effect to its halfway point. High values mean a need for much substance, low ones an effect from little substance. Broadly, the Emax is the greatest response seen or fitted, relative to the assay's reference. As for `C[C@@]1(O)CC[C@H]2[C@H](CC[C@@H]3[C@@H]2CC[C@]2(C)[C@@H](C(=O)Cn4cnn(-c5cc(F)nc(F)c5)c4=O)CC[C@@H]32)C1` [Compound 41], in the series on SD rats (setting [4]), the “latency period of clonic convulsion behavior” value turned out to be 2764.6 ± 1330.9 s and the “latency period of tonic-clonic behavior” value turned out to be 3600 ± 0 s. The “effective dose for the antiepileptic convulsion effect” value in the series with SD rats (oral, PTZ model) was determined as 3.5 mg/kg. In series [1] (Rat liver microsomes), this compound displayed a CLint scaled at 1 µM of 23 mL/min/kg and a half-life at 1 µM of 1.8 h. For the same compound, the “Remaining amount % at 60 min” value in series [1] (Rat liver microsomes 0.5 mg/mL, NADPH) was 68.3%. For the same compound, the microsomal CLint at 1 µM in series [1] (Rat liver microsomes, read-out: CLint(mic)) turned out to be 13 µL/min/mg. In series [2], this compound registered an EC50 of 67 nM and an Emax of 754%. In series [3], this compound showed an EC50 of 145 nM and an Emax of 762%.

The values above are taken from patent publication US20250368678A1, “19-NOR-C3,3-DISUBSTITUTED C21-AZACYCLO-S[…] AND METHOD FOR USING SAME” (SHANDONG LUYE PHARMACEUTICAL CO., LTD., priority 2022, published 2025).
